This passage reports IC50 results from US10611748B2, “Xanthone derivatives for the treatment of hepatitis B virus disease” (Hoffmann-La Roche Inc., priority 2017, dated 2020).

In this assay the test system is extracellular HBeAg level (surrogate marker for cccDNA) in HepDES19 cells. Put plainly: HepDES19 primary screen assay. In kind it is cell-based, HBV. Particulars: Hepatitis B virus, 120 h, 5 days compound incubation, HBeAg ELISA. The text has this: The assay was employed to primarily screen for novel cccDNA inhibitors. HepDES19 is an engineered cell line which contains a 1.1 unit length HBV genome, and pgRNA transcription from the transgene is controlled by Tetracycline (Tet). In the absence of Tet, pgRNA transcription will be induced, but HBV e antigen (HBeAg) could not be produced from this pgRNA due to the fact that the very short leader sequence before the HBeAg start codondisrupted the start codon. Only after cccDNA is formed, the missing leader sequence and start codon mutation would be restored from the 3′-terminal redundancy of pgRNA, and then HBeAg could be synthesized. Therefore, HBeAg could be used as a surrogate marker for cccDNA (Zhou, T. et al., Antiviral Res(2006), 72(2), 116-124; Guo, H. et al., J. Virol (2007), 81(22), 12472-12484).
HepDES19 cells were seeded at 2×10^6 cells per T150 flask and cultured with the culture medium (Dulbecco's Modified Eagle Medium: Nutrient Mixture F-12 (DMEM:F12, Gibco Cat. 11320-82), 10% Fetal Bovine Serum (FBS, Clontech Cat. 631101), 0.1 mM Non-Essential Amino Acids Solution (NEAA, Gibco Cat. 11140-050), 50 μg/mL Penicillin-Streptomycin (PS, Invitrogen Cat. 15140-163), 500 μg/mL Geneticin (G418, Invitrogen Cat. 10131-027) containing 3 μg/mL Tet (Sigma, Cat. 87128) for 5 days. Cells were then seeded at 4×10^6 cells per T150 in the same culture medium as described above in the absence of Tet for 8 days. Cells were then harvested and frozen at density of 2×10^6 cells per mL. For compound testing, the frozen cells were thawed and seeded into 96-well plates at a density of 6×10^4 cells per well. At 24 hrs after seeding, half log serial dilutions of compounds made with Dimethyl sulfoxide (DMSO, Sigma, Cat. D2650) were further diluted with the same culture medium as described above before they were added to the cells to reach desired final compound concentrations and 1% DMSO concentration. Plates were then incubated at 37° C. for another 5 days before measurement of HBeAg level and cell viability. Extracellular HBeAg level were measured with enzyme-linked immunosorbent assay (ELISA) kit (Shanghai Kehua Diagnostic Medical Products Co., Ltd). Cell viability was assessed using Cell Counting Kit-8 (Donjindo, Cat. CK04-20). IC50 values were derived from the dose-response curve using 4 parameter logistic curve fit method.
The compounds of the present invention were tested for their capacity to inhibit extracellular HBeAg level as described herein.
The term IC50 denotes the concentration needed to halve the response being measured. On to `Clc1cccc2c1Oc1c(cc(Cl)c(N3CCCC3)c1Cl)C2` [Example 56, 1-(2,4,5-trichloro-9H-xanthen-3-yl)pyrrolidine], for which half-maximal inhibition (IC50) required 6.28 µM.

Take `Clc1cccc2c1Oc1cc(N3CCCC3)ccc1C2C1COC1` (stereo not drawn) [Example 57, 1-[5-chloro-9-(oxetan-3-yl)-9H-xanthen-3-yl]pyrrolidine]: the IC50 came to 7.33 µM.

`CC(=O)OC(c1cccc(F)c1Cl)C1c2ccc(N3CCCC3)cc2Oc2c(Cl)cccc21` (stereo not drawn) [Example 58, [(2-chloro-3-fluoro-phenyl)-(5-chloro-3-pyrrolidin-1-yl-9H-xanthen-9-yl)methyl]acetate] had an IC50 of 11.7 µM.

`OC1(C(F)(F)F)c2ccc(N3CCCC3)cc2Oc2c(Cl)cccc21` (stereo not drawn) [Example 59, 5-chloro-3-pyrrolidin-1-yl-9-(trifluoromethyl)xanthen-9-ol] yielded an IC50 of 19.2 µM.

The molecule `COC1(C(F)(F)F)c2ccc(N3CCCC3)cc2Oc2c(Cl)cccc21` (stereo not drawn) [Example 60, 1-[5-chloro-9-methoxy-9-(trifluoromethyl)xanthen-3-yl]pyrrolidine] had an IC50 of 22.2 µM.

For the molecule `FC(F)(F)C1c2ccc(N3CCCC3)cc2Oc2c(Cl)cccc21` (stereo not drawn) [Example 61, 1-[5-chloro-9-(trifluoromethyl)-9H-xanthen-3-yl]pyrrolidine], the IC50 came out at 31 µM.

With `Fc1cccc2c1Oc1cc(N3CCCC3)ccc1C2` [Example 62, 1-(5-fluoro-9H-xanthen-3-yl)pyrrolidine], half-maximal inhibition (IC50) required 3.99 µM.

Molecule `O=c1c2ccc(N3CCCC3)nc2oc2c(F)cccc12` [Example 63, 9-fluoro-2-pyrrolidin-1-yl-chromeno[2,3-b]pyridin-5-one] yielded an IC50 of 19.2 µM.

Regarding `O=c1c2ccc(N3CCCC3)nc2oc2c(Cl)cccc12` [Example 64, 9-chloro-2-pyrrolidin-1-yl-chromeno[2,3-b]pyridin-5-one], half-maximal inhibition (IC50) was put at 35 µM.

`O=C(C1CCN(c2ccc3c(=O)c4cccc(Cl)c4oc3c2)C1)N1CCOCC1` (stereo not drawn) [Example 65, 5-chloro-3-[3-(morpholine-4-carbonyl)pyrrolidin-1-yl]xanthen-9-one] gave an IC50 of 3.89 µM.

`O=c1c2cc(Cl)c(N3CCCC3)cc2oc2c(F)cccc12` [Example 68, 2-chloro-5-fluoro-3-pyrrolidin-1-yl-xanthen-9-one] showed an IC50 of 1.18 µM.

In the case of `O=C(O)[C@@H]1CCN(c2ccc3c(=O)c4c(Cl)ccc(Cl)c4oc3c2)C1` [Example 69, (3R)-1-(5,8-dichloro-9-oxo-xanthen-3-yl)pyrrolidine-3-carboxylic Acid], the IC50 turned out to be 0.96 µM.

Molecule `O=C(O)C1CCN(c2ccc3c(=O)c4cc(Cl)cc(Cl)c4oc3c2)C1` (stereo not drawn) [Example 70, 1-(5,7-dichloro-9-oxo-xanthen-3-yl)pyrrolidine-3-carboxylic Acid] showed an IC50 of 5.9 µM.

The molecule `O=C(O)C1CCN(c2ccc3c(=O)c4cc(F)cc(Cl)c4oc3c2)C1` (stereo not drawn) [Example 71, 1-(5-chloro-7-fluoro-9-oxo-xanthen-3-yl)pyrrolidine-3-carboxylic Acid] gave an IC50 of 13 µM.

`O=C(O)[C@H]1CCN(c2ccc3c(=O)c4cccc(Cl)c4sc3c2)C1` [Example 72, (3S)-1-(5-chloro-9-oxo-thioxanthen-3-yl)pyrrolidine-3-carboxylic Acid] yielded an IC50 of 3.6 µM.

Take `O=C(O)[C@@H]1CCN(c2ccc3c(=O)c4cccc(Cl)c4sc3c2)C1` [Example 73, (3R)-1-(5-chloro-9-oxo-thioxanthen-3-yl)pyrrolidine-3-carboxylic Acid]: the IC50 stood at 2.6 µM.

Molecule `Cc1cc2c(=O)c3cccc(Cl)c3oc2cc1N1CC[C@@H](C(=O)O)C1` [Example 74, (3R)-1-(5-chloro-2-methyl-9-oxo-xanthen-3-yl)pyrrolidine-3-carboxylic Acid] displayed an IC50 of 2.6 µM.

`CC1c2ccc(N3CCC(C(=O)O)C3)cc2Oc2c(Cl)cccc21` (stereo not drawn) [Example 75, 1-(5-chloro-9-methyl-9H-xanthen-3-yl)pyrrolidine-3-carboxylic Acid] gave an IC50 of 10.1 µM.
